These results are taken from patent US6525054B1, “Cyanoiminoquinoxaline derivatives” (Shionogi & Co., Ltd., priority 1998, dated 2003).

Structures can show the parent of a compound that is named as a salt.

One series relates to kidney. Description: Nephrotoxicity. Particulars: 100 mg/kg i.v. bolus, SD rat, 24 hr later. It is filed as in vivo. As to the method: Compound 2(2) was intravenously administered by a bolus of 100 mg/kg to SD rat (9-10 weeks), which was killed 24 hr later. The both-side kidneys were immediately extracted from the rat. After measuring the weight, one kidney was embedded in paraffin to give a tissue preparation. The other kidney was homogenized, then the extract was subjected to liquid chromatography to determine the concentration of compound 2(2).

For another series, the target named is AMPA receptor. The series is described as follows: Receptor affinity: [3H]AMPA binding to rat cerebral cortex membrane fraction. The arrangement: species or system Slc-Wistar rat. Conditions: 30 nM [3H]AMPA, 0° C. 30 min. As to the method: (§1) As to 2-cyanoimino-1,4-dihydro-7-(1,4-dihydro-4-oxo-1-pyridyl)-6-nitro-3-quinoxaline monosodium salt (hereinafter referred to as compound 2(2)) obtained in Example 2(2), the affinity for the AMPA receptor and glycine-binding site of the NMDA receptor was determined as follows.
Cerebral cortex of Slc-Wistar rat (body weight: 250˜300 g) was homogenized with 10 times volume of 30 mM Tris-acetate buffer (pH 7.1) containing 2.5 mM CaCl2, then the mixture was centrifugalized (30,000×g, 15 min) and re-suspended (×3 times). The resultant suspension was restored at −80° C. until use. The froze suspension was thawed at room temperature and suspended into 30 mM Tris-acetate buffer (pH 7.1) containing 2.5 mM CaCl2 and 100 mM KSCN, to give a membrane fraction. The membrane fraction was incubated with 30 nM [^3H]AMPA and a test compound of various concentrations at 0° C. for 30 min. The mixture was diluted and collected by filtration with Whatman GF/C filter to terminate the reaction, then the radioactivity of ^3H remained on the filter was determined with a liquid scintillation counter. The non-specific binding was determined using 1 mM non-radioactive glutamate to calculate the IC50 value.

The next series has as its system cerebral infarction. Description: Inhibition effect on cerebral infarction (MCA occlusion/reperfusion). It is filed as in vivo, Slc-Wistar rat. Particulars: 24 hr of reperfusion. From the text: As to compound 2(2), the inhibition effect on cerebral infarction was examined. […] Briefly the animals were anesthetized with halothane (FLUOTHANE, Takeda Chemical Industries Ltd.). After median incision of the neck skin, the right external carotid artery (ECA) was carefully dissected. A coated nylon thread (#4-0, 17.5 mm, Nitcho Kogyo Co. Ltd.) was inserted from the lumen of the ECA to the right internal carotid artery to occlude the origin of the right middle cerebral artery. After surgery, anesthesia was immediately discontinued. […] After 1 hr of MCA occlusion, the thread was removed to allow reperfusion under halothane anesthesia. Body temperature was maintained at 37° C. with a heating pad during ischemic and reperfusion surgery.
The test compound was administered from 15 min after reperfusion for 1 hr by continuous infusion via a catheter (Clay Adams; PE-20) inserted into the femoral vein in a volume of 4 ml/kg/hr.
After 24 hr of reperfusion following 1 hr of MCA occlusion, rat was perfused with physiological saline containing heparin under pentobarbital anesthesia and the brain were removed after decapitation. The brain was cut into 12 coronal sections at 1 mm intervals using tissue chopper (McLWAIN) and immersed in saline containing 2% 2,3,5-triphenyltetrazolium-Cl (Wako Pure Chemical Industries, Ltd.) for 15 min. The stained brain sections were fixed by 10% formalin neutral buffered solution and infarct areas were quantified by an image analyzer system (OPTIMAS, Ver6.0) following scanning (Scantouch210, Nikon).

The test system of the next series is AMPA-induced seizure. The series is described as follows: Anticonvulsant effect on AMPA-induced seizure. Format: in vivo, Slc-ddY mouse. Conditions: iv; mouse, i.v. 1 min before AMPA 2 nmol/5 μL i.c.v., observed 15 min, Probit method. Here is the method: The anticonvulsant effect of compound 2(2) on AMPA-induced seizure was determined. According to the method described in J. T. Haley and W. G. McCormich, Br. J. Pharmacol. 12, 12-15(1957), AMPA 2 nmol/5 μL was intracerebroventricular administered to the cerebral ventricle of Slc-ddY mouse (4-5 weeks, male). The test compound, in a volume of 0.1 mL /10 g, was intravenously administered 1 min before the AMPA administration. The convulsion was examined by observing and checking, for 15 min from the AMPA administration, the reveal of jumping, wild-running, […] convulsion and tonic convulsion, then the ED50 value was calculated by Probit method.

Series [1] concerns the target T1, glycine-binding site of NMDA receptor complex (Rattus norvegicus, UniProt P35439).
T1 construct: from tissue; host or cells: rat cerebral cortex membrane fraction (Triton X-100 treated)
The series is described as follows: Receptor affinity: [3H]glycine binding to rat cerebral cortex membrane fraction. The arrangement: species or system Slc-Wistar rat. Conditions: 100 nM [3H]glycine, 0° C. 10 min. As to the method:
as §1
Cerebral cortex of Slc-Wistar rat (body weight: 250˜300 g) was homogenized with 20 times volume of 5 mM Tris-acetate buffer (pH 7.4) containing 1 mM EGTA, 0.1 mM PMSF and 0.01% bacitracin […] and re-suspended (×4 times). The resultant suspension was restored at −80° C. until use. The froze suspension was thawed at room temperature and incubated at 2° C. in 0.08% triton X-100 solution for 10 min, then the mixture was washed 2 times and suspended into 50 mM Tris-acetate buffer (pH 7.4), to give a membrane fraction. The membrane fraction was incubated with 100 nM [^3H]glycine and a test compound of various concentrations at 0° C. for 10 min. The mixture was diluted and collected by filtration with Whatman GF/C paper to terminate the reaction, then the radioactivity of ^3H remained on the filter was determined with a liquid scintillation counter. The non-specific binding was determined using 1 mM non-radioactive glycine to calculate the IC50 value.

The term IC50 denotes the concentration that gives 50% inhibition. The low end stands for higher potency, the high end for lower potency. For orientation: ED50 means the dose at which the effect has come halfway, by size or by number of responders. High values mean weaker potency, low ones greater potency. On to `N#CN=c1[nH]c2cc(-n3ccc(=O)cc3)c([N+](=O)[O-])cc2[nH]c1=O` [compound 2(2), 2-cyanoimino-1,4-dihydro-7-(1,4-dihydro-4-oxo-1-pyridyl)-6-nitro-3-quinoxaline monosodium salt], for which the Kidney tissue pathology entry in the series with kidney was “no pathological unusual”. Also, in the series on kidney, the “Weight of the kidney compared to the vehicle group” value is on record as “has not changed”. For the same compound, the “Concentration of compound in the kidney (liquid chromatography)” value with kidney (kidney homogenate) is “not detected”. Besides, the IC50 on AMPA receptor worked out at 0.034 µM; in series [1], 7.5 µM. Further, the “Infarct area at cerebral cortex (% of saline, mean ± standard error)” value in the series on cerebral infarction (0.3 mg/kg/h i.v. infusion for 1 hr from 15 min after reperfusion) is 79.55 ± 13.99 % of saline; in the series with cerebral infarction (1 mg/kg/h i.v. infusion for 1 hr from 15 min after reperfusion) it was 55.99 ± 11.77 % of saline; in the series with cerebral infarction (3 mg/kg/h i.v. infusion for 1 hr from 15 min after reperfusion), 50.34 ± 10.14 % of saline; with cerebral infarction (10 mg/kg/h i.v. infusion for 1 hr from 15 min after reperfusion), 46.71 ± 15.24 % of saline. In the series with AMPA-induced seizure, this compound showed an ED50 of 6.9 mg/kg.
